Measured values taken from publication PMC5572697, “A first-in-human study of the novel HIV-fusion inhibitor C34-PEG4-Chol” (Scientific Reports, 2017).
Entries after “also recorded” stand apart in the source; their conditions may differ. Read-outs that look alike come from different tables or passages of the source.

Columns and labels:
in vivo [1] = settings: mouse, C57BL/6 mice; for AUC(0-inf): plasma LC-MS, mean of three animals per point
Description: (§1) C34-PEG4-Chol first in man – Supplementary Information
(§2) Supplementary Information 2:
(§3) Preclinical Pharmacokinetics of C34-PEG4-Chol […]
(§4) C34-PEG4-Chol was formulated in 10 mM phosphate buffered saline (pH 7.2). The concentration of C34-PEG4-Chol in plasma samples was determined by LC-MS as previously […]
The PK of C34-PEG4-Chol in C57BL/6 mice following intravenous (IV) and subcutaneous (SC) dosing is shown in […]
(§5) Figure S2: Pharmacokinetics of C34-PEG4-Chol in mice. 3.5 mg/kg or 1.0 mg/kg (SC and IV, respectively) of C34-PEG4-Chol in 10mM phosphate buffered saline (PBS) were administered to C57BL/6 mice: volume of administration 5 mL/kg and 2 mL/kg for SC and IV administration, respectively. The concentration of the dosing solution was determined immediately after dosing with the same analytical method utilized to monitor peptide plasma concentration with time, and the analytical curves were adjusted accordingly (SC dose 0.56 mg/mL, theor.
0.5 mg/mL; IV dose 0.62 mg/mL, theor. 0.7 mg/mL). Each data point is the mean of three animals.
(§6) (1 picture or pasted object on this page, not shown here) […]

HIV-positive men = assay: First-in-human safety and injection site reaction (ISR) grading; type: in vivo; settings: for ISR grade: one participant
Description: Dosing was commenced at the lowest dose of 10 mg in a volume of 1 mL. Randomisation was undertaken using the InForm™ Integrated Trial Management system and was on a 1:1 basis, with no predefined stratifications. All clinical study staff were blinded. Clinical research pharmacists who were not part of the clinical research team, were not blinded in order to reconstitute study products. These members of the research pharmacy team had no involvement in the clinical care of participants during study procedures.
At all study time-points, participants were reviewed for ISRs, a symptom-directed physical examination was performed and blood samples were collected for full blood picture, electrolytes, liver enzymes, amylase and glucose. An electrocardiogram was performed pre-dose and 4 and 12 hours after dosing. A decision to proceed with dose escalation was made only after all four participants in each dose cohort had been observed for a minimum of 7 days for safety assessments. All safety data were reviewed by an independent data monitoring committee (IDMC).
Supplementary Information 1:
Table S1: List of injection site reactions (ISR) grading

mice = assay: Repeat-dose toxicity study in mice; type: in vivo; settings: subcutaneous
Description: (§7) Pre-clinical toxicology studies were conducted in 2 species (rodent/mice and non-rodent/dogs). Multiple high doses of C34-PEG4-Chol, up to 12 mg/kg or 10 x the maximum proposed human dose, were administered daily in mice and twice weekly (the intended frequency in humans) in dogs for 14 days, with a 7-day recovery period for both species. […] Toxicology results were analysed independently by the Medicines and Healthcare Regulatory Authority (MHRA), UK before a decision was made to proceed with trial in humans.
(§8) Repeat-dose toxicity studies were conducted in mice (n = 20 at 6 mg/kg/day, n = 20 at 12 mg/kg/day) and dogs (n = 6 at 6 mg/kg/day, n = 6 at 12 mg/kg/day). The subcutaneous route of administration was selected for both species. The highest dose of 12 mg/kg/day was based on the maximal achievable dose with the formulation, and corresponded to 10x the maximum proposed human dose (80 mg, 1.15 mg/kg). No premature decedents occurred in either species. Following observation, animals were euthanised.

[2] = Repeat-dose toxicity study in mice; type: in vivo; settings: mouse, in vivo, sc, subcutaneous, daily for 14 days, 7-day recovery, read-out: No-observed-adverse-effect-level (NOAEL)
Description: as §7, §8

in vivo [3] = settings: rat, Wistar Han rats; for AUC(0-inf): plasma LC-MS, mean of three animals per point
Description: as §1, §2, §3, §4, §6
as §5, with “S3.” for “S2:”, “rats” for “mice.”, “Wistar Han rats:” for “C57BL/6 mice:”, “0.5 mL/kg.” for “5 mL/kg and 2 mL/kg for SC and IV administration, respectively.”, “accordingly. Each data point is the mean of three animals.” for “accordingly (SC dose 0.56 mg/mL, theor.”
Table S3. Calculated pharmacokinetics parameters of C34-PEG4-Chol in rats, following intravenous (IV) and subcutaneous (SC) administration.

in vivo [4] = settings: rhesus monkey, rhesus monkeys; for AUC(0-inf): plasma LC-MS, mean of three animals per point
Description: as §1, §2, §3, §4
Figure S4. Pharmacokinetics of C34-PEG4-Chol in rhesus monkeys 2.0 mg/kg or 1.0 mg/kg (SC and IV administration, respectively) of C34-PEG4-Chol in 10mM phosphate buffered saline (PBS) were administered to rhesus monkeys: volume of administration 0.5 mL/kg. The concentration of the dosing solution was determined immediately after dosing with the same analytical method utilized to monitor peptide plasma concentration with time, and the analytical curves were adjusted accordingly. Each data point is the mean of three animals.
Table S4. Calculated pharmacokinetics parameters of C34-PEG4-Chol in rhesus monkeys, following intravenous (IV) and subcutaneous (SC) administration. […]

dogs = assay: Repeat-dose toxicity study in dogs; type: in vivo; settings: subcutaneous
Description: as §7, §8

[5] = IV 1.0 mg/kg, read-out: t½ (converted)

## CC[C@H](C)[C@H](NC(=O)[C@H](CC(C)C)NC(=O)[C@H](CO)NC(=O)[C@H](Cc1c[nH]cn1)NC(=O)[C@@H](NC(=O)[C@H](CC(C)C)NC(=O)[C@H](CO)NC(=O)[C@@H](NC(=O)[C@H](Cc1ccc(O)cc1)NC(=O)[C@H](CC(N)=O)NC(=O)[C@H](CC(N)=O)NC(=O)[C@@H](NC(=O)[C@H](CCC(=O)O)NC(=O)[C@H](CCCNC(=N)N)NC(=O)[C@H](CC(=O)O)NC(=O)[C@H](Cc1c[nH]c2ccccc12)NC(=O)[C@H](CCC(=O)O)NC(=O)[C@H](CCSC)NC(=O)[C@H](Cc1c[nH]c2ccccc12)NC(C)=O)[C@@H](C)CC)[C@@H](C)O)[C@@H](C)CC)C(=O)N[C@@H](CCC(=O)O)C(=O)N[C@@H](CCC(=O)O)C(=O)N[C@@H](CO)C(=O)N[C@@H](CCC(N)=O)C(=O)N[C@@H](CC(N)=O)C(=O)N[C@@H](CCC(N)=O)C(=O)N[C@@H](CCC(N)=O)C(=O)N[C@@H](CCC(=O)O)C(=O)N[C@@H](CCCCN)C(=O)N[C@@H](CC(N)=O)C(=O)N[C@@H](CCC(=O)O)C(=O)N[C@@H](CCC(N)=O)C(=O)N[C@@H](CCC(=O)O)C(=O)N[C@@H](CC(C)C)C(=O)N[C@@H](CC(C)C)C(=O)NCC(=O)N[C@@H](CO)C(=O)NCC(=O)N[C@@H](CSCC(=O)NCCOCCOCCOCCOCCC(=O)O[C@H]1CC[C@@]2(C)C(=CC[C@H]3[C@@H]4CC[C@H]([C@H](C)CCCC(C)C)[C@@]4(C)CC[C@@H]32)C1)C(N)=O [C34-PEG4-Chol]
In vivo [1]; IV 1.0 mg/kg
  clearance: 0.29 mL/min/kg
In vivo [1]; IV 1.0 mg/kg in 10 mM PBS
  AUC(0-inf): 10.8 µM·h
In vivo [1]; IV 1.0 mg/kg, read-out: Vdss
  Vd: 0.05 L/kg
In vivo [1]; [5]
  half-life: 1.97 h
In vivo [1]; SC 3.5 mg/kg
  Cmax: 1120 nM
  Tmax: 5.3 h
  bioavailability: 30.3%
In vivo [1]; SC 3.5 mg/kg in 10 mM PBS
  AUC(0-inf): 11.5 µM·h
HIV-positive men; 3 men received active drug (10 mg, 10 mg, 20 mg), subcutaneous
  Individuals with grade 3 ISR among those administered active drug: 2 out of 3
HIV-positive men; single subcutaneous 10 mg dose
  ISR grade: grade 3
HIV-positive men; single subcutaneous 20 mg dose
  ISR grade: grade 3
HIV-positive men; single subcutaneous 10 or 20 mg, 84 days follow up
  Systemic clinical or laboratory toxicities: No systemic toxicities were observed; also recorded: No systemic clinical toxicities or laboratory defined toxicities were observed
mice
  Injection site reactions (ISRs): had not been observed
mice; up to 12 mg/kg/day for 14 days
  Tolerability: well tolerated
[2]
  NOAEL at 336 h: 12 mg/kg/day
In vivo [3]; IV 1.0 mg/kg
  clearance: 0.48 mL/min/kg
In vivo [3]; IV 1.0 mg/kg in 10 mM PBS
  AUC(0-inf): 6.6 µM·h
In vivo [3]; IV 1.0 mg/kg, read-out: Vdss
  Vd: 0.08 L/kg
In vivo [3]; [5]
  half-life: 2.18 h
In vivo [3]; SC 3.5 mg/kg
  Cmax: 260 nM
  Tmax: 3.3 h
  bioavailability: 7.97%
In vivo [3]; SC 3.5 mg/kg in 10 mM PBS
  AUC(0-inf): 1.86 µM·h
In vivo [4]; IV 1.0 mg/kg
  clearance: 0.078 mL/min/kg
In vivo [4]; IV 1.0 mg/kg in 10 mM PBS
  AUC(0-inf): 41.5 µM·h
In vivo [4]; IV 1.0 mg/kg, read-out: Vdss
  Vd: 0.055 L/kg
In vivo [4]; [5]
  half-life: 8.5 h
In vivo [4]; SC 2.0 mg/kg
  Cmax: 1150 nM
  Tmax: 6.7 h
  bioavailability: 45.3%
In vivo [4]; SC 2.0 mg/kg in 10 mM PBS
  AUC(0-inf): 37.5 µM·h
dogs; 6 and 12 mg/kg, 14 days
  Tolerability: well tolerated
dogs; also seen in controls, greater severity with the peptide
  Injection site findings: some subcutaneous inflammation at the injection sites; also recorded: mild and reversible
